The subject of data set [1] is sublines of the Jurkat human leukaemia cell line, which have reduced amounts of topoisomerase II. Also on record: method as in Finlay et al, 1993. The note with it: ref Finlay et al, 1993; cited from earlier work.
For the next data set, the system named is cancer patients. Details: method as in Abigerges et al, 1996. Particulars: phase I trial; ref Abigerges et al, 1996; cited from earlier work.
Details of data set [2]: method as in Evans et al, 1992; Paxton et al, 1992, 1993a, 1993b. Particulars: preclinical pharmacology studies; ref Evans et al, 1992; Paxton et al, 1992, 1993a, 1993b; cited from earlier work.
For the next data set, the system named is Colon 11 A. Also on record: method as in Baguley et al, 1995. The note with it: Colon 11 A tumour; ref Baguley et al, 1995; cited from earlier work.
The next data set relates to metastatic solid tumour. As to the kind of experiment: Anti-tumour activity in patients, WHO criteria. Particulars: 41 patients, 9-800 mg m-2. It is filed as in vivo, human.
Data set [3] deals with multi-drug resistant subline of the P388 leukaemia expressing the P-glycoprotein. Also on record: method as in Baguley et al, 1990. Particulars: ref Baguley et al, 1990; cited from earlier work.
In the next data set the test system is L1210 leukaemia. Particulars: cited from earlier work.
The subject of the next data set is mice. Particulars: murine data, cited from earlier work.
For a further data set, the system named is murine 16/C tumour. Details: method as in Baguley et al, 1995. The note with it: ref Baguley et al, 1995; cited from earlier work.
The nature of the next data set: clinical. The note with it: human, in vivo; for Cmax: 800 mg.
Data set [4] concerns patients with solid tumours.
A further data set relates to Lewis lung carcinoma. Details: method as in Atwell et al, 1987; Finlay and Baguley, 1989. The note with it: Lewis lung carcinoma in mice; ref Atwell et al, 1987; Finlay and Baguley, 1989; cited from earlier work.
The test system of another data set is P388 leukaemia. The note with it: cited from earlier work.
The next data set relates to Colon 38. Also on record: method as in Baguley et al, 1995. The note with it: Colon 38 tumour; ref Baguley et al, 1995; cited from earlier work.
On the set-up of data set [5]: method as in Evans et al, 1992; Paxton et al, 1992, 1993a, 1993b. The note with it: preclinical; ref Evans et al, 1992; Paxton et al, 1992, 1993a, 1993b; cited from earlier work.
The conditions of data set [6]: human, in vivo.

These results are taken from article PMC2363132, “Phase I and pharmacokinetic study of DACA (XR5000): a novel inhibitor of topoisomerase I and II” (British Journal of Cancer, 1999).

Read-outs that look alike come from different tables or passages of the source.

In the case of `COc1cccc2c1C(=O)c1c(O)c3c(c(O)c1C2=O)C[C@@](O)(C(=O)CO)C[C@@H]3O[C@H]1C[C@H](N)[C@H](O)[C@H](C)O1` [doxorubicin], the “sensitivity of Jurkat sublines with reduced topoisomerase II” value in data set [1] is on record as “highly resistant”.
For the compound `COc1cc([C@@H]2c3cc4c(cc3[C@@H](O[C@@H]3O[C@@H]5CO[C@@H](C)O[C@H]5[C@H](O)[C@H]3O)[C@H]3COC(=O)[C@H]23)OCO4)cc(OC)c1O` [etoposide], in data set [1], the “sensitivity of Jurkat sublines with reduced topoisomerase II” value is recorded as “highly resistant”.
Regarding `Cc1cnc(NCCCN(C)C)c2c1[nH]c1ccc3cc(O)ccc3c12` [intoplicine], the dose-limiting toxicity result with cancer patients is reported as “hepatotoxicity”.
As usually defined, the Cmax is the highest concentration seen after dosing. As a reminder, the half-life is the time needed for the level to fall by half in the phase considered. A lower half-life goes with rapid decline. As a reminder, the Tmax is the time from dosing to the highest level. In general, Vd refers to the apparent volume that relates the amount in the body to the concentration in plasma or blood. A lower Vd goes with confinement near the circulation. A word on the clearance: it is the rate of elimination divided by the concentration. Low values mean inefficient removal, high ones efficient removal. On to `CN(C)CCNC(=O)c1cccc2cc3ccccc3nc12.Cl.Cl` [DACA, N-[2-(dimethylamino)ethyl] acridine-4-carboxamide dihydrochloride], for which the “tissue levels in brain, liver, kidney and heart relative to plasma” value in [2] is “substantially higher”. In addition, the activity in vivo entry in the data set with Colon 11 A is on record as “highly active”; with L1210 leukaemia it was “only moderate activity”; in the data set on murine 16/C tumour, “highly active”; with Lewis lung carcinoma, “highly active”; with P388 leukaemia it was “only moderate activity”; in the data set with Colon 38, “highly active”. In the data set on metastatic solid tumour, the “objective responses according to WHO criteria” value is on record as “no objective responses”. The “activity against multi-drug resistant P388 subline expressing P-glycoprotein” value in [3] was “maintains activity”. Also, in [1], the “sensitivity of Jurkat sublines with reduced topoisomerase II” value is “retain sensitivity”. The values for the LD10 result in the data set on mice (five consecutive daily i.v. doses) and in the data set on mice (single i.v. dose) were “approximately 30 mg kg-1 per day” and 58 mg/kg, respectively. Further, the Cmax in “clinical” (female, Cmax) is 3150 ng/mL; in “clinical” (Cmax (range)), 2310 to 12100 ng/mL. Besides, the half-life in “clinical” (T1/2) was 2.22 h. Besides, the Tmax in “clinical” (Tmax) was 2.91 h. For the same compound, the Vd in the data set “clinical” (Vss) amounted to 143 L. The clearance in “clinical” (plasma clearance) was 1400 mL/min. Further, the “maximum tolerated dose (MTD)” value in data set [4] (3 h i.v. infusion on 3 successive days, repeated every 3 weeks) came to 800 mg m-2 d-1. For the same compound, the “dose-limiting toxicity (DLT)” value in [4] (3 h i.v. infusion on 3 successive days, 800 mg m-2) is given as “pain during the infusion”. In addition, in [4] (all dose levels), the clinically significant myelosuppression was “rare”. Moreover, the “unbound fraction in mouse plasma” value in data set [5] is reported as 15.8%. Moreover, the T1/2 in data set [6] came out at 2.08 h. In [6], this compound registered a Vss of 145.21. Besides, the “highest AUC on day 3 of all patients” value in data set [6] is 54.2. The same compound returned a plasma clearance in data set [6] of 81.11. Moreover, in data set [6], the “relationship between dose and AUC” value is “linear relationship”.
